From US20090264401A1, “SUBSTITUTED PYRIMIDIN-5-CARBOXAMIDES 281” (AstraZeneca AB, priority 2008, published 2009)

Biological target: T1, human 11βHSD1 enzyme (Homo sapiens, UniProt P28845)
T1 construct: baculovirus expressed N terminal 6-His tagged full length human 11βHSD1 enzyme; 6-His (N); made in house
Assay: 11βHSD1 cortisone to cortisol conversion, competitive HTRF assay
Assay type: biochemical
Settings: for inhibition at 30 µM: human 11-βHSD, test concentration of 30 μM of compound; for IC50: recombinant N terminal 6-His tagged full length human 11βHSD1, cortisone 160 nM, 25 minutes at 37° C.
Procedure: The evaluation of compounds described herein was carried out using a baculovirus expressed N terminal 6-His tagged full length human 11βHSD1 enzyme(*1). The enzyme was purified from a detergent solubilised cell lysate, using a copper chelate column. Inhibitors of 11βHSD1 reduce the conversion of cortisone to cortisol, which is identified by an increase in signal, in the above assay.
Compounds to be tested were dissolved in dimethyl sulphoxide (DMSO) to 10 mM and diluted further in assay buffer containing 1% DMSO to 10 fold the final assay concentration. Diluted compounds were then plated into black 384 well plates (Matrix, Hudson N.H., USA).
Fluorescence at 665 nm and 620 nm was measured and the 665 nm:620 nm ratio calculated using an Envision plate reader.

T1 sequence (P28845 whole entry): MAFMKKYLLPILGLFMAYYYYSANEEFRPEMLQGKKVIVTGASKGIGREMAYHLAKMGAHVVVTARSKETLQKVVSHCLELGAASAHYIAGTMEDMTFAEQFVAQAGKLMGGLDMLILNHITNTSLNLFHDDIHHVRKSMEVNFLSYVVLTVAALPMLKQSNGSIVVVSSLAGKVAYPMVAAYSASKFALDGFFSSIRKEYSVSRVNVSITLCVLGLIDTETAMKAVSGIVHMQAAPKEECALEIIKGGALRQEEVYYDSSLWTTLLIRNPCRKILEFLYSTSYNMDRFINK

Row | SMILES | inhibition at 30 µM | IC50
1 | CC(C)(C)c1ncncc1C(=O)N[C@H]1C2CC3CC1C[C@@](O)(C3)C2 [Example 7] | 88.3% | –
2 | CC(C)(C)c1nc(N2CCOCC2)ncc1C(=O)NC1C2CC3CC(C2)CC1C3 (stereo not shown) [Example 14, N-(2-Adamantyl)-4-tert-butyl-2-morpholin-4-ylpyrimidine-5-carboxamide] | 108% | –
3 | Cc1nc(N2CCOCC2)ncc1C(=O)NC1C2CC3CC(C2)CC1C3 (stereo not shown) [Example 15, N-(2-adamantyl)-4-methyl-2-morpholin-4-ylpyrimidine-5-carboxamide] | 95.4% | –
4 | CCCSc1nc(N2CCC[C@@H](CC(=O)OC)C2)ncc1C(=O)NC1CCCCC1 [Example 19, (S)-Methyl 2-(1-(5-(cyclohexylcarbamoyl)-4-(propylthio)pyrimidin-2-yl)piperidin-3-yl)acetate] | 100% | 14 nM
5 | CCCSc1nc(N2CCC[C@@H](CC(=O)O)C2)ncc1C(=O)NC1CCCCC1 [Example 20, {(3S)-1-[5-(Cyclohexylcarbamoyl)-4-(propylthio)pyrimidin-2-yl]piperidin-3-yl}acetic acid] | 97.6% | 2 nM
6 | CCCSc1ncc(C(=O)N[C@H]2C3CC4CC2C[C@@](O)(C4)C3)c(N2CCN(C(C)=O)CC2)n1 [Example 25, 4-(4-Acetylpiperazin-1-yl)-N-[(2r,5 s)-5-hydroxyadamantan-2-yl]-2-propylsulfanylpyrimidine-5-carboxamide] | 101% | –
7 | CCCSc1nc(N2CCN(C(=O)N(C)C)CC2)ncc1C(=O)NC1C2CC3CC(C2)CC1C3 (stereo not shown) [Example 29, N-(2-adamantyl)-2-[4-(dimethylcarbamoyl)piperazin-1-yl]-4-propylsulfanyl-pyrimidine-5-carboxamide] | 100% | 13 nM
8 | CNc1ncc(C(=O)N[C@H]2C3CC4CC2C[C@@](O)(C4)C3)c(C2CC2)n1 [Example 34, 4-Cyclopropyl-N-[(2r,5s)-5-hydroxyadamantan-2-yl]-2-methylaminopyrimidine-5-carboxamide] | 98% | –
9 | O=C(N[C@H]1C2CC3CC1C[C@@](O)(C3)C2)c1cnc(N2CC[S+]([O-])CC2)nc1C1CC1 [Example 36, 4-Cyclopropyl-N-[(2r,5s)-5-hydroxyadamantan-2-yl]-2-(1-oxo-1,4-thiazinan-4-yl)pyrimidine-5-carboxamide] | 99.5% | –
10 | O=C(N[C@H]1C2CC3CC1C[C@@](O)(C3)C2)c1cnc(N2CCS(=O)(=O)CC2)nc1C1CC1 [Example 37, 4-Cyclopropyl-2-(1,1-dioxo-1,4-thiazinan-4-yl)-N-[(2r,5s)-5-hydroxyadamantan-2-yl]pyrimidine-5-carboxamide] | 93.5% | –
11 | O=C(N[C@H]1C2CC3CC1C[C@@](O)(C3)C2)c1cnc(N2CCCS(=O)(=O)CC2)nc1C1CC1 [Example 45, 4-Cyclopropyl-2-(1,1-dioxo-1,4-thiazepan-4-yl)-N-[(2r,5s)-5-hydroxyadamantan-2-yl]pyrimidine-5-carboxamide] | 98.5% | –
12 | O=C(N[C@H]1C2CC3CC1C[C@@](O)(C3)C2)c1cnc(N2CC3CC2CS3)nc1C1CC1 [Example 46, 4-Cyclopropyl-N-[(2r,5s)-5-hydroxyadamantan-2-yl]-2-(3-thia-6-azabicyclo[2.2.1]heptan-6-yl)pyrimidine-5-carboxamide] | 104% | –
13 | O=C(N[C@H]1C2CC3CC1C[C@@](O)(C3)C2)c1cnc(N2CC3CC2C[S+]3[O-])nc1C1CC1 (stereo partly shown) [Example 47, 4-Cyclopropyl-N-[(2r,5s)-5-hydroxyadamantan-2-yl]-2-(3-oxo-3 ?4-thia-6-azabicyclo[2.2.1]heptan-6-yl)pyrimidine-5-carboxamide] | 97.3% | –
14 | Nc1ncc(C(=O)N[C@H]2C3CC4CC2C[C@@](O)(C4)C3)c(C2CC2)n1 [Example 49, 2-Amino-4-cyclopropyl-N-[(2r,5s)-5-hydroxyadamantan-2-yl]pyrimidine-5-carboxamide] | 99.3% | –

Second part, the compound after the results:

Row | inhibition at 30 µM | IC50 | SMILES
15 | 106% | 370 nM | O=C(N[C@H]1C2CC3CC1C[C@@](O)(C3)C2)c1cncnc1C1CC1 [Example 3, 4-cyclopropyl-N-[(2r,5s)-5-hydroxyadamantan-2-yl]pyrimidine-5-carboxamide]
16 | 97.5% | 70 nM | CSc1ncc(C(=O)N[C@H]2C3CC4CC2C[C@@](O)(C4)C3)c(C2CC2)n1 [Example 11, 4-Cyclopropyl-N-[(2r,5s)-5-hydroxyadamantan-2-yl]-2-methylsulfanyl-pyrimidine-5-carboxamide]
17 | 97.3% | 45 nM | Cc1ncc(C(=O)NC2C3CC4CC(C3)CC2C4)c(C2CC2)n1 (stereo not shown) [Example 12, N-(2-adamantyl)-4-cyclopropyl-2-methyl-pyrimidine-5-carboxamide]
18 | 112% | 14 nM | O=C(NC1C2CC3CC(C2)CC1C3)c1cnc(N2CCOCC2)nc1C1CC1 (stereo not shown) [Example 13, N-(2-adamantyl)-4-cyclopropyl-2-morpholino-pyrimidine-5-carboxamide]
19 | 95.8% | 2 nM | CCCSc1ncc(C(=O)N[C@H]2C3CC4CC2C[C@@](O)(C4)C3)c(SCCC)n1 [Example 16, N-[(2r,5s)-5-hydroxyadamantan-2-yl]-2,4-bis(propylsulfanyl)pyrimidine-5-carboxamide]
20 | 98.5% | 3 nM | CCCSc1ncc(C(=O)N[C@H]2C3CC4CC2C[C@@](O)(C4)C3)c(N(C)C)n1 [Example 18, 4-Dimethylamino-N-[(2r,5s)-5-hydroxyadamantan-2-yl]-2-propylsulfanylpyrimidine-5-carboxamide]
21 | 89.5% | – | CCCSc1ncc(C(=O)N[C@H]2C3CC4CC2C[C@@](O)(C4)C3)c(NC)n1 [Example 22, N-[(2r,5s)-5-hydroxyadamantan-2-yl]-4-methylamino-2-propylsulfanylpyrimidine-5-carboxamide]
22 | 97.4% | – | CCCSc1nc(N2C[C@@H](C)O[C@@H](C)C2)ncc1C(=O)N[C@H]1C2CC3CC1C[C@@](O)(C3)C2 [Example 23, 2-[(2s,6r)-2,6-Dimethylmorpholin-4-yl]-N-[(2r,5s)-5-hydroxyadamantan-2-yl]-4-propylsulfanylpyrimidine-5-carboxamide]
23 | 68% | – | CCCSc1ncc(C(=O)N[C@H]2C3CC4CC2C[C@@](O)(C4)C3)c(N2C[C@@H](C)O[C@@H](C)C2)n1 [Example 24, 4-[(2S,6R)-2,6-Dimethylmorpholin-4-yl]-N-[(2r,5s)-5-hydroxyadamantan-2-yl]-2-propylsulfanylpyrimidine-5-carboxamide]
24 | 89% | – | CCCSc1nc(N2CCN(C(C)=O)CC2)ncc1C(=O)N[C@H]1C2CC3CC1C[C@@](O)(C3)C2 [Example 26, 2-(4-Acetylpiperazin-1-yl)-N-[(2r,5 s)-5-hydroxyadamantan-2-yl]-4-propylsulfanylpyrimidine-5-carboxamide]
25 | 95.5% | – | CCCSc1nc(N2CCN(C(C)=O)CC2)ncc1C(=O)NC1C2CC3CC(C2)CC1C3 (stereo not shown) [Example 27, 2-(4-Acetylpiperazin-1-yl)-N-(2-adamantyl)-4-propylsulfanyl-pyrimidine-5-carboxamide]
26 | 103% | – | CCCSc1nc(N2CCN(S(C)(=O)=O)CC2)ncc1C(=O)NC1C2CC3CC(C2)CC1C3 (stereo not shown) [Example 28, N-(2-adamantyl)-2-(4-methylsulfonylpiperazin-1-yl)-4-propylsulfanyl-pyrimidine-5-carboxamide]
27 | 97.5% | 33 nM | COc1ncc(C(=O)N[C@H]2C3CC4CC2C[C@@](O)(C4)C3)c(C2CC2)n1 [Example 33, 4-Cyclopropyl-N-[(2r,5s)-5-hydroxyadamantan-2-yl]-2-methoxypyrimidine-5-carboxamide]
28 | 106% | – | O=C(N[C@H]1C2CC3CC1C[C@@](O)(C3)C2)c1cnc(N2CCSCC2)nc1C1CC1 [Example 35, 4-Cyclopropyl-N-[(2r,5s)-5-hydroxyadamantan-2-yl]-2-thiomorpholin-4-ylpyrimidine-5-carboxamide]
29 | 94% | – | O=C(N[C@H]1C2CC3CC1C[C@@](O)(C3)C2)c1cnc(N2CCSCC2)nc1C1CCC1 [Example 41, 4-Cyclobutyl-N-[(2r,5s)-5-hydroxyadamantan-2-yl]-2-thiomorpholin-4-ylpyrimidine-5-carboxamide]
30 | 99.4% | – | C[C@@H]1CN(c2ncc(C(=O)N[C@H]3C4CC5CC3C[C@@](O)(C5)C4)c(C3CC3)n2)C[C@H](C)O1 [Example 42, 4-Cyclopropyl-2-(2,6-dimethylmorpholin-4-yl)-N-[(2r,5s)-5-hydroxyadamantan-2-yl]pyrimidine-5-carboxamide]
31 | 99.2% | – | O=C(N[C@H]1C2CC3CC1C[C@@](O)(C3)C2)c1cnc(N2CCCSCC2)nc1C1CC1 [Example 43, 4-Cyclopropyl-N-[(2r,5s)-5-hydroxyadamantan-2-yl]-2-(1,4-thiazepan-4-yl)pyrimidine-5-carboxamide]
32 | 98% | – | O=C(N[C@H]1C2CC3CC1C[C@@](O)(C3)C2)c1cnc(N2CCC[S+]([O-])CC2)nc1C1CC1 (stereo partly shown) [Example 44, 4-Cyclopropyl-N-[(2r,5s)-5-hydroxyadamantan-2-yl]-2-(1-oxo-1,4-thiazepan-4-yl)pyrimidine-5-carboxamide]
33 | 100% | – | O=C(N[C@H]1C2CC3CC1C[C@@](O)(C3)C2)c1cnc(N2CC3CC2CS3(=O)=O)nc1C1CC1 [Example 48, 4-Cyclopropyl-2-(3,3-dioxo-3λ6-thia-6-azabicyclo[2.2.1]heptan-6-yl)-N-[(2r,5 s)-5-hydroxyadamantan-2-yl]pyrimidine-5-carboxamide]
